This is an account of results in patent US9593108B2, “Compounds and methods for antiviral treatment” (PTC Therapeutics, Inc., priority 2009, dated 2017).

The subject of series [1] is HCV replicon RNA (GenBank Accession No. AJ242654). The series can be described thus: HCV Replicon Assay (replicon RNA reduction and/or Fluc reporter signal). The class given is cell-based, Hepatitis C virus. The following applies: Hepatitis C virus, 72 h, replicon-containing cells cultured with test compound for up to 3 days. The gist of the method: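 Bicistronic replicon-containing cells cultured with compound for up to 3 days, with interferon as positive control. Inhibition quantified by replicon RNA reduction and/or Fluc reporter signal; IC50 values generally derived from replicon RNA reduction.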
For orientation: Replicon systems follow genome replication, usually without infectious particles.

Take `N#Cc1c(-c2ccc(S(=O)(=O)NC(CF)CF)cc2)n(C2CCC2)c2ncc(Cl)cc12` [Cpd 8, 4-(5-chloro-3-cyano-1-cyclobutyl-1H-pyrrolo[2,3-b]pyridin-2-yl)-N-(1,3-difluoropropan-2-yl)benzenesulfonamide]: the melting point was 234 to 238 °C. The compound also yielded an IC50 in series [1] of 500 to 2000 nM.
Compound `CN(C)c1cnc2c(c1)c(C#N)c(-c1ccc(NS(=O)(=O)C(C)(C)C)cc1)n2C1CCC1` [Cpd 498, N-{4-[3-cyano-1-cyclobutyl-5-(dimethylamino)-1H-pyrrolo[2,3-b]pyridin-2-yl]phenyl}-2-methylpropane-2-sulfonamide] yielded a melting point of 200 to 202 °C. The IC50 in series [1] was below 500 nM.
The compound `CCc1cnc2c(c1)c(C#N)c(-c1ccc(S(=O)(=O)N[C@@H](C)C(F)(F)F)cn1)n2-c1cc(F)ccn1` [Cpd 412, 6-[3-cyano-5-ethyl-1-(4-fluoropyridin-2-yl)-1H-pyrrolo[2,3-b]pyridin-2-yl]-N-[(2S)-1,1,1-trifluoropropan-2-yl]pyridine-3-sulfonamide] returned a melting point of 201 to 205 °C. In series [1], this compound displayed an IC50 below 500 nM.
In turn, `N#Cc1c(-c2ccc(NS(=O)(=O)C3CC3)cc2)n(C2CCCCC2)c2ncc(C(F)(F)F)cc12` [Cpd 427, N-{4-[3-cyano-1-cyclohexyl-5-(trifluoromethyl)-1H-pyrrolo[2,3-b]pyridin-2-yl]phenyl}cyclopropanesulfonamide] showed a melting point of 225 to 227 °C. In series [1], this compound returned an IC50 below 500 nM.
For `Cc1cnc2c(C#N)c(-c3ccc(S(=O)(=O)N[C@@H](C)C(F)(F)F)cn3)n(-c3ccccn3)c2c1` [Cpd 465, 6-[3-cyano-6-methyl-1-(pyridin-2-yl)-1H-pyrrolo[3,2-b]pyridin-2-yl]-N-[(2S)-1,1,1-trifluoropropan-2-yl]pyridine-3-sulfonamide] the same measures were 242 to 244 °C and below 500 nM.
Compound `CC(C)(C)NS(=O)(=O)c1ccc(-c2c(C#N)c3cc(Cl)cnc3n2C2CCC2)nc1` [Cpd 52, N-tert-butyl-6-(5-chloro-3-cyano-1-cyclobutyl-1H-pyrrolo[2,3-b]pyridin-2-yl)pyridine-3-sulfonamide] registered a melting point of 207 to 208 °C. Besides, in series [1], the IC50 was below 500 nM.
For `NC(=O)c1c(-c2ccc(S(=O)(=O)NC3(C(F)(F)F)CC3)cn2)n(C2CCC2)c2ncc(C(F)(F)F)cc12` [Cpd 400, 1-cyclobutyl-5-(trifluoromethyl)-2-(5-{[1-(trifluoromethyl)cyclopropyl]sulfamoyl}pyridin-2-yl)-1H-pyrrolo[2,3-b]pyridine-3-carboxamide] the same measures were 230 to 235 °C and below 500 nM.
The like results for `N#Cc1c(-c2ccc(S(=O)(=O)NC(CF)CF)cn2)n(C2CCC2)c2ncc(Cl)cc12` [Cpd 14, 6-(5-chloro-3-cyano-1-cyclobutyl-1H-pyrrolo[2,3-b]pyridin-2-yl)-N-(1,3-difluoropropan-2-yl)pyridine-3-sulfonamide] were, in that order, 176 to 178 °C and below 500 nM.
For `CC(C)NS(=O)(=O)c1cnc(-c2c(C#N)c3cnc(Cl)cc3n2C2CCC2)nc1` [Cpd 100, 2-(6-chloro-3-cyano-1-cyclobutyl-1H-pyrrolo[3,2-c]pyridin-2-yl)-N-(propan-2-yl)pyrimidine-5-sulfonamide] the same measures were 238 to 239 °C and below 500 nM.
`C[C@H](NS(=O)(=O)c1ccc(-c2c(C#N)c3cc(Cl)cnc3n2C2CCC2)nc1)C(F)(F)F` [Cpd 51, 6-(5-chloro-3-cyano-1-cyclobutyl-1H-pyrrolo[2,3-b]pyridin-2-yl)-N-[(2S)-1,1,1-trifluoropropan-2-yl]pyridine-3-sulfonamide]: the melting point was 203 to 204 °C. Also, the IC50 in series [1] was below 500 nM.
The like results for `Cc1ccc2c(C#N)c(-c3ncc(S(=O)(=O)NC(CF)CF)cn3)n(C3CCC3)c2n1` [Cpd 147, 2-(3-cyano-1-cyclobutyl-6-methyl-1H-pyrrolo[2,3-b]pyridin-2-yl)-N-(1,3-difluoropropan-2-yl)pyrimidine-5-sulfonamide] were, in that order, 211 to 217 °C and below 500 nM.
For `CCc1cc2c(C#N)c(-c3ccc(S(=O)(=O)N[C@@H](C)C(F)(F)F)cc3)n(C3CCC3)c2cn1` [Cpd 219, 4-(3-cyano-1-cyclobutyl-5-ethyl-1H-pyrrolo[2,3-c]pyridin-2-yl)-N-[(2S)-1,1,1-trifluoropropan-2-yl]benzenesulfonamide] the same measures were 200 to 203 °C and below 500 nM.
`Cc1cnc2c(c1)c(C#N)c(-c1ccc(S(=O)(=O)N[C@@H](C)C(F)(F)F)cn1)n2-c1ncccn1` [Cpd 345, 6-[3-cyano-5-methyl-1-(pyrimidin-2-yl)-1H-pyrrolo[2,3-b]pyridin-2-yl]-N-[(2S)-1,1,1-trifluoropropan-2-yl]pyridine-3-sulfonamide] returned a melting point of 221 to 223 °C. For the same compound, the IC50 in series [1] is below 500 nM.
For `Cc1cnc2c(C#N)c(-c3ccc(S(=O)(=O)N[C@H](C)C(F)(F)F)cc3)n(C3CCCC3)c2c1` [Cpd 181, 4-(3-cyano-1-cyclopentyl-6-methyl-1H-pyrrolo[3,2-b]pyridin-2-yl)-N-[(2R)-1,1,1-trifluoropropan-2-yl]benzenesulfonamide], the melting point was 281 to 283 °C. In addition, in series [1], the IC50 is below 500 nM.
`N#Cc1c(-c2ccc(S(=O)(=O)NC(CF)CF)cn2)n(C2CCCC2)c2cc(Cl)ncc12` [Cpd 82, 6-(6-chloro-3-cyano-1-cyclopentyl-1H-pyrrolo[3,2-c]pyridin-2-yl)-N-(1,3-difluoropropan-2-yl)pyridine-3-sulfonamide] returned a melting point of 231 to 233 °C. For the same compound, the IC50 in series [1] is below 500 nM.
For `Cc1cnc2c(c1)c(C#N)c(-c1ccc(S(=O)(=O)N[C@H](C)C(F)(F)F)cc1)n2C1CCC1` [Cpd 72, 4-(3-cyano-1-cyclobutyl-5-methyl-1H-pyrrolo[2,3-b]pyridin-2-yl)-N-[(2R)-1,1,1-trifluoropropan-2-yl]benzenesulfonamide] the same measures were 197 to 198 °C and below 500 nM.
The like results for `C[C@@H](NS(=O)(=O)c1ccc(-c2c(C#N)c3cc(Cl)cnc3n2C2CCC2)nc1)C(F)(F)F` [Cpd 50, 6-(5-chloro-3-cyano-1-cyclobutyl-1H-pyrrolo[2,3-b]pyridin-2-yl)-N-[(2R)-1,1,1-trifluoropropan-2-yl]pyridine-3-sulfonamide] were, in that order, 202 to 203 °C and below 500 nM.
Compound `Cc1cnc2c(c1)c(C#N)c(-c1ccc(S(=O)(=O)NC(C)(C)C)cn1)n2-c1ccccn1` [Cpd 525, N-tert-butyl-6-[3-cyano-5-methyl-1-(pyridin-2-yl)-1H-pyrrolo[2,3-b]pyridin-2-yl]pyridine-3-sulfonamide] had a melting point of 214.2 to 215.4 °C. In series [1], this compound registered an IC50 of 500 to 2000 nM.
Take `Cc1cnc2c(c1)c(C#N)c(-c1ccc(S(=O)(=O)NC3(C(F)(F)F)CC3)cc1)n2C1CCC1` [Cpd 75, 4-(3-cyano-1-cyclobutyl-5-methyl-1H-pyrrolo[2,3-b]pyridin-2-yl)-N-[1-(trifluoromethyl)cyclopropyl]benzenesulfonamide]: the melting point was 187 to 188 °C. The same compound displayed an IC50 in series [1] below 500 nM.

The IC50 is the point on the concentration scale where inhibition reaches its midpoint. Read a high IC50 as weaker potency in that assay. Broadly, the melting point is the temperature, or range, at which the solid turns liquid.
